Results from ChEMBL document CHEMBL1201862, “PubChem BioAssay data set” (2004).
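Tested at 5 concentrations; 48 h exposure; 96-well plates; endpoints linearly interpolated, else capped at highest concentration. GI50 = concentration required for 50% inhibition of growth.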 Calls of active or inactive are those of the source. Rule as the data show it: active = GI50 up to about 1.1 µM and inactive = higher.

How the values were obtained:
Assay in all cases: NCI anticancer screen, dose series, 48 h
OVCAR-3 = test system: OVCAR-3
HOP-92 = test system: HOP-92
A498 = test system: A498
HCC 2998 = test system: HCC 2998
NCI-H460 = test system: NCI-H460
MOLT-4 = test system: MOLT-4
KM-20L2 = test system: KM-20L2
UACC-257 = test system: UACC-257
K562 = test system: K562
OVCAR-5 = test system: OVCAR-5
SF-295 = test system: SF-295
DMS-114 = test system: DMS-114
OVCAR-8 = test system: OVCAR-8
RPMI-8226 = test system: RPMI-8226
SNB-19 = test system: SNB-19
KM12 = test system: KM12
CAKI-1 = test system: CAKI-1
RXF 631 = test system: RXF 631
Malme-3M = test system: Malme-3M
HCT-15 = test system: HCT-15
DLD-1 = test system: DLD-1
HL-60 = test system: HL-60
786-0 = test system: 786-0
NCI-H226 = test system: NCI-H226
LOX IMVI = test system: LOX IMVI
NCI-H522 = test system: NCI-H522
SF-539 = test system: SF-539
M14 = test system: M14
UACC-62 = test system: UACC-62
SK-OV-3 = test system: SK-OV-3
NCI-H23 = test system: NCI-H23
SK-MEL-2 = test system: SK-MEL-2
SN12C = test system: SN12C
CCRF-CEM = test system: CCRF-CEM
IGROV-1 = test system: IGROV-1
SF-268 = test system: SF-268
LXFL 529 = test system: LXFL 529
A549 = test system: A549
HCT-116 = test system: HCT-116
OVCAR-4 = test system: OVCAR-4
EKVX = test system: EKVX
TK-10 = test system: TK-10
HT-29 = test system: HT-29
COLO 205 = test system: COLO 205
SW-620 = test system: SW-620
HOP-18 = test system: HOP-18
SNB-78 = test system: SNB-78
U-251 = test system: U-251
DMS-273 = test system: DMS-273
SK-MEL-5 = test system: SK-MEL-5
UO-31 = test system: UO-31
ACHN = test system: ACHN
XF498 = test system: XF498

O=C1CCC(=O)C(C(=O)CCC(=O)Nc2ccc(Cl)cc2)C1 (stereo not drawn)
GI50 (OVCAR-3): > 100 µM (inactive)
GI50 (HOP-92): > 100 µM (inactive)
GI50 (A498): > 100 µM (inactive)
GI50 (HCC 2998): > 100 µM (inactive)
GI50 (NCI-H460): > 100 µM (inactive)
GI50 (MOLT-4): > 100 µM (inactive)
GI50 (KM-20L2): > 100 µM (inactive)
GI50 (UACC-257): > 100 µM (inactive)
GI50 (K562): > 100 µM (inactive)
GI50 (OVCAR-5): > 100 µM (inactive)
GI50 (SF-295): > 100 µM (inactive)
GI50 (DMS-114): > 100 µM (inactive)
GI50 (OVCAR-8): > 100 µM (inactive)
GI50 (RPMI-8226): > 100 µM (inactive)
GI50 (SNB-19): > 100 µM (inactive)
GI50 (KM12): > 100 µM (inactive)
GI50 (CAKI-1): > 100 µM (inactive)
GI50 (RXF 631): > 100 µM (inactive)
GI50 (Malme-3M): > 100 µM (inactive)
GI50 (HCT-15): > 100 µM
GI50 (DLD-1): > 100 µM (inactive)
GI50 (HL-60): > 100 µM (inactive)
GI50 (786-0): > 100 µM (inactive)
GI50 (NCI-H226): > 100 µM (inactive)
GI50 (LOX IMVI): > 100 µM (inactive)
GI50 (NCI-H522): > 100 µM (inactive)
GI50 (SF-539): > 100 µM (inactive)
GI50 (M14): > 100 µM (inactive)
GI50 (UACC-62): > 100 µM (inactive)
GI50 (SK-OV-3): > 100 µM (inactive)
GI50 (NCI-H23): > 100 µM (inactive)
GI50 (SK-MEL-2): > 100 µM (inactive)
GI50 (SN12C): > 100 µM (inactive)
GI50 (CCRF-CEM): > 100 µM (inactive)
GI50 (IGROV-1): > 100 µM (inactive)
GI50 (SF-268): > 100 µM (inactive)
GI50 (LXFL 529): > 100 µM (inactive)
GI50 (A549): > 100 µM (inactive)
GI50 (HCT-116): > 100 µM (inactive)
GI50 (OVCAR-4): > 100 µM (inactive)
GI50 (EKVX): > 100 µM (inactive)
GI50 (TK-10): > 100 µM (inactive)
GI50 (HT-29): > 100 µM (inactive)
GI50 (COLO 205): > 100 µM (inactive)
GI50 (SW-620): > 100 µM (inactive)
GI50 (HOP-18): > 100 µM (inactive)
GI50 (SNB-78): > 100 µM (inactive)
GI50 (U-251): > 100 µM (inactive)
GI50 (DMS-273): > 100 µM (inactive)
GI50 (SK-MEL-5): > 100 µM (inactive)
GI50 (UO-31): > 100 µM (inactive)
GI50 (ACHN): > 100 µM (inactive)
GI50 (XF498): > 100 µM (inactive)
